The record followed here is publication PMC10525135, “Computationally Designed AMPs with Antibacterial and Antibiofilm Activity against MDR Acinetobacter baumannii” (Antibiotics, 2023).

In brackets after ≈: the same amount, converted by molar mass. Read-outs that look alike come from different tables or passages of the source. Residues, ends and D or L forms follow the SMILES beside them.

The subject of one data set is AB5075. Kind of data set: Membrane permeabilization assay (ethidium bromide uptake). Conditions: 50 µg/mL, 10 µM ethidium bromide, 20 min at 37 °C, versus untreated control. The format is cell-based, Acinetobacter baumannii. On the procedure:
Membrane permeabilization was assessed using ethidium bromide uptake after peptide exposure, as we have previously described. AB5075 was grown on a Tryptic Soy agar for 18–24 h. Colonies presenting opaque morphology were picked and resuspended in DPBS (Gibco, Waltham, MA, USA) to achieve 0.1 OD600. A total of 180 µL of the bacterial suspension was mixed with a final peptide concentration of 50 µg/mL and a final ethidium bromide concentration of 10 µM in a black 96-well flat plate (Ultracruz Polypropylene Microplate sc-204462, Santacruz, CA, USA). The plate was transferred immediately to BioTek Cytation 5 (Santa Clara, CA, USA) for fluorescence intensity readings every 2 min for 20 min at 37 °C (excitation: 535 nm; emission: 590 nm). The relative fluorescence units (RFUs) were calculated. Tested samples minus no peptide control that has EtBr. LL-37 and polymyxin B were used as the controls in this experiment. The experiment was run in three replicates twice. Student’s t-test was used to determine statistical significance.

For data set [1], the system named is A. baumannii AB5075 (MRSN959). In kind it is cell-based, Acinetobacter baumannii. On the procedure: (§1) Minimum inhibitory concentration (n = 3) was performed according to the CLSI protocols with a minor modification, in which Difco Mueller Hinton broth (BD 275730, Franklin Lakes, NJ, USA) was used instead of cation-adjusted Mueller Hinton broth following Wiegand et al.’s standardized protocol for testing AMPs. Bacteria were grown overnight in an opaque colony, and the concentration was determined using McFarland’s technique. An aliquot of 50 µL of 1 × 10^6 CFU/mL of bacteria was incubated with a decreasing series of peptide concentration to achieve a final bacterial concentration of 5 × 10^5 CFU/mL at 37 °C 5% CO2 for 20–24 h in Difco Mueller Hinton broth. Dilutions were performed in a 96-well polypropylene plate (Corning 3879, Corning, NY, USA). This is critical to avoid peptide binding to the plate. Results were obtained by measuring bacterial growth at OD600 nm. LL-37 and polymyxin B were used as positive controls. Samples containing only the medium and medium with peptides were used as the sterility controls and samples containing only bacteria in MHB served as the growth control. Each experiment was performed twice, and one representative experiment is shown.

In data set [2] the test system is A. baumannii BAA-1710. The format is cell-based, Acinetobacter baumannii. Conditions: A. baumannii BAA-1710; Difco Mueller Hinton broth, 5 × 10^5 CFU/mL, 37 °C 5% CO2, 20–24 h, OD600, n = 3. Here is the method:
as §1

The subject of a further data set is A. baumannii BAA-1794. The format is cell-based, Acinetobacter baumannii. To be noted: A. baumannii BAA-1794; Difco Mueller Hinton broth, 5 × 10^5 CFU/mL, 37 °C 5% CO2, 20–24 h, OD600, n = 3. On the procedure:
as §1

Data set [3] deals with A. baumannii strains AB5075, BAA-1710, -1794, and -1800. In kind it is cell-based, Acinetobacter baumannii. Conditions: summary over MDR A. baumannii strains of Table 3. On the procedure:
as §1

For a further data set, the system named is A. baumannii BAA-1800. The format is cell-based, Acinetobacter baumannii. To be noted: A. baumannii BAA-1800; Difco Mueller Hinton broth, 5 × 10^5 CFU/mL, 37 °C 5% CO2, 20–24 h, OD600, n = 3. On the procedure: as §1
The test system of the next data set is Galleria mellonella. Kind of data set: Waxworm toxicity testing. To be noted: 10 µg in 10 µL PBS injected per worm, 10 worms per group, 72 h.
Data set [4] deals with A. baumannii BAA-1710. In words: Time-kill kinetics. The format is cell-based, Acinetobacter baumannii. To be noted: BAA-1710, all tested concentrations (1×, 5×, 10× MIC; MIC = 0.5 µg/mL). From the text:
(§2) At the various timepoints, samples were serially diluted, and CFUs were counted by spot plating on a Tryptic Soy agar.

Another data set relates to A. baumannii AB5075. Kind of data set: Time-kill kinetics. The format is cell-based, Acinetobacter baumannii. To be noted: AB5075, highest concentration (5 µg/mL).
Text: as §2

For data set [5], the system named is AB5075 pre-formed (24 h) biofilm. In kind it is cell-based, Acinetobacter baumannii. On the procedure: The MBEC assay measures the lowest concentration of an antimicrobial agent that can eradicate established biofilms. Using the MBEC assay in the Biofilm Inoculator 96-well base (Innovotech Cat #1911, Edmonton, AB, Canada) and following the manufacturer’s protocol, 150 µL (n = 6) of 1 × 10^6 CFU/mL of AB5075 in TSB was incubated for 24 h at 37 °C at 110 rpm for biofilm formation. The lid containing pegs was rinsed with sterile PBS for 5 min, and then the lid was placed in a peptide challenge polypropylene 96-well plate containing a decreasing series of drug concentrations and incubated for 24 h at 37 °C at 110 rpm. Pegs were washed three times with tap water, heat-fixed for 70 °C for 1 h, and stained with 0.1% crystal violet for 15 min. Excess stain was rinsed off with tap water and allowed to dry. Stained pegs were resolubilized with 200 µL of 33% glacial acetic acid. OD590 was obtained to measure the remaining biofilm. Pegs with only bacteria served as the growth control and 100% biofilm control. Media alone and media with a peptide/drug served as the sterility controls. […] The experiment was performed twice.

Protocol for Galleria mellonella: Galleria mellonella were obtained from Vanderhorst Wholesale (Saint Mary’s, OH, USA), and 10 worms with equal weights between 200 to 300 mg were assigned to each group. […] The experiment was performed twice, and the results were analyzed by the Mantel–Cox test.

Take `CC[C@H](C)CCCCC(=O)N[C@@H](CCN)C(=O)N[C@H](C(=O)N[C@@H](CCN)C(=O)N[C@H]1CCNC(=O)[C@H]([C@@H](C)O)NC(=O)[C@H](CCN)NC(=O)[C@H](CCN)NC(=O)[C@H](CC(C)C)NC(=O)[C@@H](Cc2ccccc2)NC(=O)[C@H](CCN)NC1=O)[C@@H](C)O` [Polymyxin B] (HELM PEPTIDE1{[CC[C@H](C)CCCCC(=O)[*:2]].[Dab].T.[Dab].[Dab].[Dab].[dF].L.[Dab].[Dab].T}$PEPTIDE1,PEPTIDE1,5:R3-11:R2$$$V2.0; N-terminus assumed; bridges inferred): the Membrane permeabilization result with AB5075 is “disrupted bacterial membranes”. Moreover, the MIC in data set [1] (A. baumannii AB5075 (MRSN959), Difco Mueller Hinton broth, 5 × 10^5 CFU/mL, 37 °C 5% CO2, 20–24 h, OD600, n = 3) was 0.25 to 0.5 µg/mL; in data set [1] (A. baumannii AB5075, experiment shown in Figure S2), 0.5 µg/mL (≈ 0.415 µM); with A. baumannii BAA-1710 [2], 0.5 µg/mL (≈ 0.415 µM); in the data set with A. baumannii BAA-1794 it was 0.5 µg/mL (≈ 0.415 µM); in the data set with A. baumannii BAA-1800, 0.5 µg/mL (≈ 0.415 µM). In addition, in data set [3], the “MIC across the tested strains” value is 0.25 to 0.5 µg/mL. Further, the Survival of worms in the data set with Galleria mellonella is recorded as 80%. Besides, in the data set on A. baumannii BAA-1710 [4], the “Killing within 3 h” value is on record as “failed to kill”. Besides, in the data set on A. baumannii AB5075, the “Time to complete killing” value is on record as no more than 3 h. Moreover, in [5] (AB5075 pre-formed biofilm, CFU determination), the “Concentration giving complete eradication of bacteria (reduction in CFU) in pre-formed biofilms” value amounted to 2 µg/mL. Also, in data set [5] (MBEC100, AB5075 24 h pre-formed biofilm on pegs, 24 h challenge, crystal violet OD590, n = 6), the MBEC result is given as “* 2 µg/mL”. Besides, in [5] (treated with between 2 and 16 µg/mL, AB5075 pre-formed biofilm), the “crystal violet-stained biofilm mass maintained” value was “up to 40%”.
